Experimental data as given in patent US20240165196A1, “Beta-Lactamase Inhibitors” (VIB VZW, priority 2021, published 2024).

Experiments:
[1] = system: E. coli strains carrying ESBL mutants of TEM; assay: checkerboard assay (FICI), TEM3.2 versus ampicillin; type: cell-based
Description: FIGS. 2A-2M. (FIG. 2A) TEM mutations and their effects on stability (total energy) as predicted by FoldX. […] Dashed line indicates a total energy difference of 0.5 kcal/mol, the FoldX cut-off above which mutations are considered to be destabilizing. (FIG. 2B) Barplot mapping mutations in (FIG. 2A) to the TEM sequence and indicating occurrence. […] The bar heights correspond to the number of times a mutation occurs across different TEM variants (right-hand y-axis). The color coding is identical to that in (FIG. 2A). Red line indicates the TANGO scores (indicated on the left-hand y-axis), with peaks corresponding to APRs. […]
Moreover, the core sequence of peptide TEM3.0 also occurs in the structurally related SHV β-lactamase (FIG. 2E). […] To quantify the synergy between these four peptides and penicillin G, we performed a so-called checkerboard assay, which allows to compare the activity of two test compounds co-incubated (here peptide and a beta-lactam antibiotic), to their individual activities in isolation. The result from the assay is quantified as the Fractional Inhibitory Concentration Index (FICI), and it is generally accepted that values below 0.5 indicate synergistic effects between the compounds. […] We evaluated the synergy of the peptides with penicillin G in clinical E. coli isolates carrying the TEM (FIG. 2I) or SHV enzymes (FIG. 2J). […]

NCI-H441 = type: cell-based, human

Question: Which results are given for Ac-RLTAFLHNRRPRLTAFLRQRR-NH2 [TEM3.2]?
Answer: synergy with ampicillin (FICI) [1]: synergy; cytotoxicity (Cell Titer Blue) (NCI-H441): not cytotoxic
